From ChEMBL document CHEMBL1201862, “PubChem BioAssay data set” (2004)
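Briefly, cells in 96-well plates were exposed to five compound concentrations for 48 h, and endpoints were estimated by linear interpolation. The concentration for 50% growth inhibition is given as GI50.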 The source made the active and inactive calls. Cut-off read from the data, not from the text of the source: active = GI50 up to about 1.1 µM and inactive = higher.

How the values were obtained:
Assay in all cases: DTP human tumour cell line panel, 48 h
[1] = test system: MDA-MB-231
[2] = test system: OVCAR-8
[3] = test system: COLO 205
[4] = test system: SW-620
[5] = test system: MOLT-4
[6] = test system: HT-29
[7] = test system: BT-549
[8] = test system: SK-MEL-2
[9] = test system: NCI-H460
[10] = test system: SK-MEL-28
[11] = test system: MCF7
[12] = test system: HCT-116
[13] = test system: UO-31
[14] = test system: SK-OV-3
[15] = test system: OVCAR-5
[16] = test system: A498
[17] = test system: SK-MEL-5
[18] = test system: MDA-MB-435
[19] = test system: HL-60
[20] = test system: SF-539

ClC(Cl)(Cl)C1=N[C@H]2[C@H](Br)[C@@H]3O[C@@H](c4ccccc4)[C@H](c4ccccc4)O[C@@H]3[C@H]2O1
GI50 [1]: 23 µM (inactive)
GI50 [2]: 17.6 µM (inactive)
GI50 [3]: 16.3 µM (inactive)
GI50 [4]: 19.6 µM (inactive)
GI50 [5]: 18.2 µM (inactive)
GI50 [6]: 20.5 µM (inactive)
GI50 [7]: 24.9 µM (inactive)
GI50 [8]: 16.2 µM (inactive)
GI50 [9]: 16 µM (inactive)
GI50 [10]: 20.3 µM (inactive)
GI50 [11]: 17.3 µM (inactive)
GI50 [12]: 18.7 µM (inactive)
GI50 [13]: 20.7 µM (inactive)
GI50 [14]: 18.5 µM (inactive)
GI50 [15]: 18.9 µM (inactive)
GI50 [16]: 17.2 µM (inactive)
GI50 [17]: 17.3 µM (inactive)
GI50 [18]: 20.7 µM (inactive)

CCOC(=O)c1nc2cc(C(F)(F)F)ccc2nc1Nc1ccc(OC)c(OC)c1
GI50 [1]: > 100 µM (inactive)
GI50 [2]: > 100 µM (inactive)
GI50 [3]: > 100 µM (inactive)
GI50 [4]: > 100 µM (inactive)
GI50 [5]: > 100 µM (inactive)
GI50 [6]: > 100 µM (inactive)
GI50 [7]: > 100 µM (inactive)
GI50 [19]: > 100 µM (inactive)
GI50 [9]: > 100 µM (inactive)
GI50 [10]: > 100 µM (inactive)
GI50 [11]: > 100 µM (inactive)
GI50 [20]: > 100 µM (inactive)
GI50 [12]: > 100 µM (inactive)
GI50 [13]: > 100 µM (inactive)
GI50 [14]: > 100 µM (inactive)
GI50 [15]: > 100 µM (inactive)
GI50 [16]: > 100 µM (inactive)
GI50 [17]: > 100 µM (inactive)
GI50 [18]: > 100 µM (inactive)

C[C@]12CC[C@H]3[C@@H](CC=C4C[C@@H](N5CCCC5)CC[C@@]43C)[C@@H]1C[C@H](N1CCOCC1)[C@@H]2O
GI50 [1]: > 100 µM (inactive)
GI50 [2]: > 100 µM (inactive)
GI50 [3]: > 100 µM (inactive)
GI50 [4]: > 100 µM (inactive)
GI50 [5]: > 100 µM (inactive)
GI50 [6]: 44.5 µM (inactive)
GI50 [7]: > 100 µM (inactive)
GI50 [19]: 98.4 µM (inactive)
GI50 [9]: > 100 µM (inactive)
GI50 [10]: > 100 µM (inactive)
GI50 [11]: > 10 µM (inactive)
GI50 [20]: > 100 µM (inactive)
GI50 [12]: > 100 µM (inactive)
GI50 [13]: > 100 µM (inactive)
GI50 [14]: > 100 µM (inactive)
GI50 [15]: > 100 µM (inactive)
GI50 [16]: > 100 µM (inactive)
GI50 [17]: > 100 µM (inactive)
GI50 [18]: 61.2 µM (inactive)

CC(C)(Cc1ccccc1)Cc1cc(O)ccc1O
GI50 [1]: 20 µM (inactive)
GI50 [2]: 17.2 µM (inactive)
GI50 [3]: 19.2 µM (inactive)
GI50 [4]: 22.6 µM (inactive)
GI50 [5]: 14.8 µM (inactive)
GI50 [6]: 20.6 µM (inactive)
GI50 [7]: 16.3 µM (inactive)
GI50 [19]: 2.22 µM (inactive)
GI50 [9]: 16.6 µM (inactive)
GI50 [10]: 21.8 µM (inactive)
GI50 [11]: 23.4 µM (inactive)
GI50 [20]: 13 µM (inactive)
GI50 [12]: 15.8 µM (inactive)
GI50 [13]: 13.4 µM (inactive)
GI50 [14]: 24.7 µM (inactive)
GI50 [15]: 30.8 µM (inactive)
GI50 [16]: 22 µM (inactive)
GI50 [18]: 17.2 µM (inactive)

O=c1cc(NNc2cccc(F)c2)[nH]c(=S)[nH]1
GI50 [1]: > 100 µM (inactive)
GI50 [2]: > 100 µM (inactive)
GI50 [3]: 77.1 µM (inactive)
GI50 [4]: > 100 µM (inactive)
GI50 [6]: > 100 µM (inactive)
GI50 [7]: > 100 µM (inactive)
GI50 [19]: 71.9 µM (inactive)
GI50 [9]: > 100 µM (inactive)
GI50 [10]: > 100 µM (inactive)
GI50 [11]: 61.5 µM (inactive)
GI50 [20]: > 100 µM (inactive)
GI50 [12]: > 100 µM (inactive)
GI50 [13]: > 100 µM (inactive)
GI50 [15]: > 100 µM (inactive)
GI50 [16]: > 100 µM (inactive)
GI50 [17]: > 100 µM (inactive)
GI50 [18]: > 100 µM (inactive)

CCCCCC/C=C\CCCCCCCCCC1=C(CN2CCN(C)CC2)C(=O)C=C(OC)C1=O
GI50 [1]: 9.53 µM (inactive)
GI50 [2]: 4.53 µM (inactive)
GI50 [3]: 1.71 µM (inactive)
GI50 [4]: 1.59 µM (inactive)
GI50 [5]: 0.353 µM (active)
GI50 [6]: 7.28 µM (inactive)
GI50 [7]: 3.87 µM (inactive)
GI50 [19]: 0.881 µM (active)
GI50 [9]: 5.73 µM (inactive)
GI50 [10]: 13.6 µM (inactive)
GI50 [11]: 4.3 µM (inactive)
GI50 [20]: 15.4 µM (inactive)
GI50 [12]: 2.14 µM (inactive)
GI50 [13]: 3.03 µM (inactive)
GI50 [14]: 13.2 µM (inactive)
GI50 [15]: 15.2 µM (inactive)
GI50 [16]: 17.5 µM (inactive)
GI50 [17]: 6.75 µM (inactive)
GI50 [18]: 8.65 µM (inactive)

CCN(CC)c1ccc2cc(-c3nc(O)c4ccccc4n3)c(=N)oc2c1
GI50 [1]: > 100 µM (inactive)
GI50 [2]: > 100 µM (inactive)
GI50 [3]: > 100 µM (inactive)
GI50 [4]: > 100 µM (inactive)
GI50 [5]: > 100 µM (inactive)
GI50 [6]: > 100 µM (inactive)
GI50 [7]: > 100 µM (inactive)
GI50 [8]: > 100 µM (inactive)
GI50 [19]: > 100 µM (inactive)
GI50 [9]: > 100 µM (inactive)
GI50 [10]: > 100 µM (inactive)
GI50 [11]: > 100 µM (inactive)
GI50 [20]: > 100 µM (inactive)
GI50 [12]: > 100 µM (inactive)
GI50 [13]: > 100 µM (inactive)
GI50 [14]: > 100 µM (inactive)
GI50 [15]: > 100 µM (inactive)
GI50 [17]: > 100 µM (inactive)
GI50 [18]: > 100 µM (inactive)

Cn1c2ccccc2n2c(=O)c(-c3ccc(Cl)cc3)nnc12
GI50 [1]: 51.2 µM (inactive)
GI50 [2]: > 100 µM (inactive)
GI50 [3]: > 100 µM (inactive)
GI50 [4]: > 100 µM (inactive)
GI50 [5]: > 100 µM (inactive)
GI50 [6]: > 100 µM (inactive)
GI50 [7]: > 100 µM (inactive)
GI50 [8]: 83.4 µM (inactive)
GI50 [19]: > 100 µM (inactive)
GI50 [9]: > 100 µM (inactive)
GI50 [10]: > 100 µM (inactive)
GI50 [11]: > 100 µM (inactive)
GI50 [20]: 43.3 µM (inactive)
GI50 [12]: > 100 µM (inactive)
GI50 [13]: > 100 µM (inactive)
GI50 [15]: > 100 µM (inactive)
GI50 [16]: > 100 µM (inactive)
GI50 [17]: > 100 µM (inactive)
GI50 [18]: > 100 µM (inactive)
